According to patent publication US12005096B2, “Apoaequorin and vitamin d-containing compositions and methods of using same” (QUINCY BIOSCIENCE, LLC, priority 2016, dated 2024):
Where two headings read alike, the source gives them in different places.

How the values were obtained:
[1] = system: rat hippocampal brain slices; experiment: Neuroprotection in rat hippocampal brain slices after oxygen glucose deprivation (OGD); assay type: in vivo; conditions: 5-min OGD; AQ by direct hippocampal injection; vitamin D in diet 0.0125 mg/kg for ~10 days; preliminary results
[2] = not given; remark: listed apart in the source
[3] = not given; remark: listed apart in the source
[4] = apoaequorin 10 mg daily, N=56, eight days to 30 days

vitamin D [reference compound]
cell death (dead and dying, blue stained cells) after OGD [1]: fewer dead or dying cells

apoaequorin
overall quality of sleep, energy, mood, pain, general health (change from baseline of scores) (32 patients, 90 day period, open-label): increase | participants discontinued the study due to an adverse event (in vivo): No participants discontinued the study due to an adverse event | participants with an increase in cognitive ability ([2]; 32 patients, 90 days): Greater than 51% | cognition (standardized cognitive battery) ([2]; 32 patients, day 8, 30, 60-90): improved cognition as early as eight days but with statistically greater improvement at day 30, as well as 60-90 | participants discontinued the study due to an adverse event ([2]; in vivo): No participants discontinued the study due to an adverse event | cell death (dead and dying, blue stained cells) after OGD [1]: few er dead and dying cells | memory performance (memory screening tool) ([3]; 56 participants, day 8 and day 30): improved memory performance as early as eight days but with statistically greater improvement at day 30 | memory improvement ([3]; apoaequorin 10 mg daily, 56 participants, after 30 days): statistically significant improvement in memory | participants with improvement in general memory [3, 4]: 57% | participants with improvement in remembering driving directions [3, 4]: 84% | participants with improvement in retaining information [3, 4]: 51% | participants with improvement in word recall [3, 4]: 66% | participants discontinued the study due to an adverse event ([3]; in vivo): No participants discontinued the study due to an adverse event
